Our source for the EC50 values is patent publication US12258337B2, “Bicyclic CX3CR1 receptor agonists” (Board of Regents, The University of Texas System, priority 2019, dated 2025).

The structures appear in SMILES notation.

What all share (format): cell-based
The target in one test is T1, mCX3CR1 (Mus musculus, UniProt Q9Z0D9).
T1 construct: expressed in transfected cells; stably expresses a Ca2+ sensitive photo-protein
T1 sequence (Q9Z0D9 1-354): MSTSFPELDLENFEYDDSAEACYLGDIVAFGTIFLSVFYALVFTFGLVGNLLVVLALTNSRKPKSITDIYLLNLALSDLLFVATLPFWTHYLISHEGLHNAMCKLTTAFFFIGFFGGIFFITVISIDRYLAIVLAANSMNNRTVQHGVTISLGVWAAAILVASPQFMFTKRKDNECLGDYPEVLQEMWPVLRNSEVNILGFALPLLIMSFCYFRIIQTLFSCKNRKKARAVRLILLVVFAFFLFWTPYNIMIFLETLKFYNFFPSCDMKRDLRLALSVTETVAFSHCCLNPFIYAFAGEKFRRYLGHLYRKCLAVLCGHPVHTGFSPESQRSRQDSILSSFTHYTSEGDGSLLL
Nature of the test: Ga16 assay, CX3CR1 agonism, Ca2+ sensitive photo-protein readout (FLIPRTETRA). The note with it: mouse CX3CR1 cell line. How it is done: (§1) Compounds (as well as stereoisomer(s) thereof and/or salt(s) thereof) were tested for CX3CR1 agonism in a cell based assay with fluorescent readout in Agonist Mode in dose response in quadruplicate with intra-plate modality).
(§2) Buffers and reagents. PBS (D-PBS without calcium and magnesium; EuroClone); Trypsin (Trypsin 0.05%, EDTA 0.02% in PBS; EuroClone); DMSO (Sigma); Standard tyrode buffer: in-house solution (130 mM NaCl, 5 mM KCl, 2 mM CaCl2), 1 mM MgCl2, 5 mM NaHCO3, 20 mM HEPES in water at pH 7.4; sterile filtered); Coelenterazine, native (Biosynth); stock 10 mM; Agonist: Recombinant Human Fractalkine (CX3CL1) (PeproTech); stock: 10 μM in standard tyrode buffer+BSA 0.1%; stored at −20° C.
(§3) Cell line. Human (hCX3CR1), mouse (mCX3CR1), and rat (rCX3CR1) were used for the assay.
(§4) Assay protocol. Experiments ere performed in 384 MTP format. Cells were seeded at 7,500 cells/well in 25 μl/well complete growth medium without selection antibiotics in 384-well plates. Twenty-four hours later, cells ere assayed for the response to various compounds using the Ca^2+ sensitive photo-protein stably expressed in the cells as readout.
(§5) The experiment was performed in a 384-well format according to the following procedure: • 24h after seeding, pre-incubate the cells at room temperature for 1 hour. • Then remove the culture medium. • Load cells with 20 μL/well of standard tyrode buffer+10 μM ceolenterazine. • Incubate cell plates for 3 hours at RT. • Inject 10 μL/w of 3× concentrated test compounds and controls in assay buffer at the FLIPRTETRA and monitor the kinetic response over a period of 90 seconds.
(§6) Data from FLIPRTETRA measurements were analyzed with the Genedata Screener© software. The following examples are meant to illustrate, but in no way to limit, the claimed invention.

Another test deals with T2, rCX3CR1 (Rattus norvegicus, UniProt P35411).
T2 construct: expressed in transfected cells; stably expresses a Ca2+ sensitive photo-protein
T2 sequence (P35411 1-354): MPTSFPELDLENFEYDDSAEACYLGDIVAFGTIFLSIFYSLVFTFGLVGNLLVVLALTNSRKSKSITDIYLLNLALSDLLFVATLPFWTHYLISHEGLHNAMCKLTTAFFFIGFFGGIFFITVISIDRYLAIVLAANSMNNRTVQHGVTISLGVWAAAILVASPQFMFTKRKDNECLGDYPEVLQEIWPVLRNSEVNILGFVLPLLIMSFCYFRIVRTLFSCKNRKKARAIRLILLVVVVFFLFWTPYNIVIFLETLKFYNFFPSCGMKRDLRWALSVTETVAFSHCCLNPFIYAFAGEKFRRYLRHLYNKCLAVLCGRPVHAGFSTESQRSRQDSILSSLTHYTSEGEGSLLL
Described as above. As to conditions: rat CX3CR1 cell line. How it is done: as §1, §2, §3, §4, §5, §6

For test [1], the target named is T3, hCX3CR1 (Homo sapiens, UniProt P49238).
T3 sequence (P49238 1-355): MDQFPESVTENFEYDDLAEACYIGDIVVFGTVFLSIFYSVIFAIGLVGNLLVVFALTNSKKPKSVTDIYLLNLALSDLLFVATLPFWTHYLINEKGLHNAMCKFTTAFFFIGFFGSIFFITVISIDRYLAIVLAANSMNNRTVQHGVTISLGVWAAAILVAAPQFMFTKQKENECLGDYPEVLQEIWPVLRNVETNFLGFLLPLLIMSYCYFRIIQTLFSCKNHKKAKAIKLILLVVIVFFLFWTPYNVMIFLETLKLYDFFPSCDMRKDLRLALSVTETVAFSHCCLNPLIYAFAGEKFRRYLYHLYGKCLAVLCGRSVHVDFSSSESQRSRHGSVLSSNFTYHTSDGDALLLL
The test is described as above. On the set-up: expressed in transfected cells; stably expresses a Ca2+ sensitive photo-protein. The note with it: human CX3CR1 cell line. On the procedure: as §1, §2, §3, §4, §5, §6

Test [2] concerns the target T3, hCX3CR1. Nature of the test: Suchi5 assay (HEK/NatClytin/CNG/Suchi5 transiently transfected hCX3CR1, Fluo-8 Ca2+ readout). Further details: expressed in transfected cells; stably expresses a Ca2+ sensitive photo-protein. As to conditions: Suchi5 assay, HEK/NatClytin/CNG/Suchi5 transfected with hCX3CR1; read-out: hCX3CR1 agonism EC50. How it is done: Buffers and reagents. PBS (D-PBS without calcium and magnesium; EuroClone); Trypsin (Trypsin 0.05%, EDTA 0.02% in PBS; EuroClone); Opti-MEM medium (Thermo Fisher); DMSO (Sigma); Standard tyrode buffer: in-house solution (130 mM NaCl, 5 mM KCl, 2 mM CaCl2), 1 mM MgCl2, 5 mM NaHCO3, 20 mM HEPES in water at pH 7.4; sterile filtered); Screen Quest™ Fluo-8 No Wash Calcium Assay Kit (AAt Bioquest®); Lipofectamine® 2000 Reagent (Thermo Fisher); Agonist: Recombinant Human Fractalkine (CX3CL1) (PeproTech); stock: 10 μM in standard Tyrode buffer/BSA 01%; stored at −20° C.
Cell line. The final cell line for CX3CR1-Suchi5 assay is HEK/NatClytin/CNG/Suchi5 transiently transfected hCX3CR1 cDNA. In this cell line native Gαi signaling is switched to Gαq pathway thanks to the overexpression of a Gαiq chimeric G protein (called Suchi5) to direct Gαi activation towards Ca^2+ release for measurement.
Assay protocol. Experiments are performed in 384 MTP format. Transiently transfected cells are seeded at 20,000 cells/well in 25 μl/well Opti-MEM medium without selection antibiotics in 384-well plates. 4-5-hours later 25 μL/well of complete medium with 20% of FBS are added to the cells. Twenty-four hours later, cells are assayed for the response to various compounds using a fluorescent Ca^2+ sensitive dye (FLUO8-No Wash Dye) as readout.
The experiment is performed in a 384-well format according to the following procedure: • 24h after seeding, remove the culture medium. • Load cells with 20 μL/well of 0.5X FLUO-8 No Wash Dye diluted in assay buffer. • Incubate cell plates for 1 hour at RT. • Inject 10 μL/w of 3× concentrated test compounds and controls in assay buffer at the FLIPRTETRA and monitor the kinetic response over a period of 90 seconds.
Data from FLIPRTETRA measurements are analyzed with the Genedata Screener© software.

For `O=C(NCC1(CN2CCCC2)CCCOC1)c1cc2c(s1)CCCCCC2` (stereo not drawn) [Example 44, N-[[3-(pyrrolidin-1-ylmethyl)oxan-3-yl]methyl]-4,5,6,7,8,9-hexahydrocycloocta[b]thiophene-2-carboxamide], the concentration giving a half-maximal response (EC50) came to 10.8 µM at mCX3CR1, 8.4 µM on rCX3CR1 and 9.6 µM on hCX3CR1 [1].

For `CC(C)OC1CCCN(CC2(CNC(=O)c3cc4c(s3)CCCCCC4)CCC2)C1` (stereo not drawn) [Example 50, N-[[1-[(3-propan-2-yloxypiperidin-1-yl)methyl]cyclobutyl]methyl]-4,5,6,7,8,9-hexahydrocycloocta[b]thiophene-2-carboxamide], the concentration giving a half-maximal response (EC50) turned out to be 16.1 µM on hCX3CR1 [2], 45.7 µM at mCX3CR1, 43.5 µM at rCX3CR1 and 15.8 µM at hCX3CR1 [1].

`CC(C)OC1CCN(CC2(CNC(=O)c3cc4c(s3)CCCCCC4)CCC2)CC1` [Example 51, N-[[1-[(4-propan-2-yloxypiperidin-1-yl)methyl]cyclobutyl]methyl]-4,5,6,7,8,9-hexahydrocycloocta[b]thiophene-2-carboxamide]: the EC50 came to 18.4 µM at hCX3CR1 [2], 15.4 µM at mCX3CR1, 34.8 µM at rCX3CR1 and 15.7 µM at hCX3CR1 [1].

In the case of `O=C(NCC1(CN2CCC(O)C2)CCCC1)c1cc2c(s1)CCCCCC2` (single isomer, unassigned) [Example 63, N-[[1-[(3-hydroxypyrrolidin-1-yl)methyl]cyclopentyl]methyl]-4,5,6,7,8,9-hexahydrocycloocta[b]thiophene-2-carboxamide], the EC50 on hCX3CR1 [2] came out at 9.6 µM; at mCX3CR1 it was 13.5 µM; on rCX3CR1, 9.7 µM; on hCX3CR1 [1], 9.8 µM.

Take `CN(C)CC1(CNC(=O)c2cc3c(s2)CCCCCC3)CC(F)(F)C1` [Example 56, N-[[1-[(dimethylamino)methyl]-3,3-difluorocyclobutyl]methyl]-4,5,6,7,8,9-hexahydrocycloocta[b]thiophene-2-carboxamide]: the concentration giving a half-maximal response (EC50) amounted to 9.6 µM on hCX3CR1 [2], 24.9 µM at mCX3CR1, 23.9 µM on rCX3CR1 and 18.5 µM at hCX3CR1 [1].

As for `COC1CCCN(CC(C)(C)CNC(=O)c2cc3c(s2)CCCCCC3)C1` (stereo not drawn) [Example 54, N-[3-(3-methoxypiperidin-1-yl)-2,2-dimethylpropyl]-4,5,6,7,8,9-hexahydrocycloocta[b]thiophene-2-carboxamide], the EC50 on hCX3CR1 [2] is 17.4 µM; at mCX3CR1, over 100 µM; at rCX3CR1, over 100 µM; on hCX3CR1 [1] it was 16.3 µM.

In the case of `O=C(NCC1(CN2CCCC2)CC(F)(F)C1)c1cc2c(s1)CCCCCC2` [Example 57, N-[[3,3-difluoro-1-(pyrrolidin-1-ylmethyl)cyclobutyl]methyl]-4,5,6,7,8,9-hexahydrocycloocta[b]thiophene-2-carboxamide], the EC50 at hCX3CR1 [2] stood at 15.6 µM; on mCX3CR1 it was 30.1 µM; at rCX3CR1, 20.3 µM; at hCX3CR1 [1], 15.3 µM.

Take `CN(C)CC1(CNC(=O)c2cc3c(s2)CCCCCC3)CCCOC1` (stereo not drawn) [Example 37, N-[[3-[(dimethylamino)methyl]oxan-3-yl]methyl]-4,5,6,7,8,9-hexahydrocycloocta[b]thiophene-2-carboxamide]: the 50% effective concentration (EC50) was determined as 15 µM at mCX3CR1, 11.5 µM at rCX3CR1 and 12.2 µM on hCX3CR1 [1].

Consider `CN(C)CC1(CNC(=O)c2cc3c(s2)CCCCCC3)CCOC1` (stereo not drawn) [Example 38, N-[[3-[(dimethylamino)methyl]oxolan-3-yl]methyl]-4,5,6,7,8,9-hexahydrocycloocta[b]thiophene-2-carboxamide], for which the EC50 stood at 15.8 µM at mCX3CR1, 13.1 µM on rCX3CR1 and 10 µM at hCX3CR1 [1].

In the case of `O=C(NCC1(CN2CCC2)CCC1)c1cc2c(s1)CCCCCC2` [Example 36, N-[[1-(azetidin-1-ylmethyl)cyclobutyl]methyl]-4,5,6,7,8,9-hexahydrocycloocta[b]thiophene-2-carboxamide], the EC50 at mCX3CR1 was over 100 µM; on rCX3CR1, over 100 µM; at hCX3CR1 [1] it was 9.1 µM.

In the case of `COCCOC1CCN(CC(C)(C)CNC(=O)c2cc3c(s2)CCCCCC3)CC1` [Example 42, N-[3-[4-(2-methoxyethoxy)piperidin-1-yl]-2,2-dimethylpropyl]-4,5,6,7,8,9-hexahydrocycloocta[b]thiophene-2-carboxamide], the EC50 at mCX3CR1 was over 100 µM; on rCX3CR1 it was 81.4 µM; on hCX3CR1 [1], 22.6 µM.

As to `O=C(NCC1(CN2CCC2)CCOCC1)c1cc2c(s1)CCCCCC2` [Example 35, N-[[4-(azetidin-1-ylmethyl)oxan-4-yl]methyl]-4,5,6,7,8,9-hexahydrocycloocta[b]thiophene-2-carboxamide], the concentration giving a half-maximal response (EC50) is 18 µM on mCX3CR1, 12.1 µM at rCX3CR1 and 12.8 µM at hCX3CR1 [1].

Take `O=C(NCC1(CN2CCC(O)CC2)CCOCC1)c1cc2c(s1)CCCCCC2` [Example 40, N-[[4-[(4-hydroxypiperidin-1-yl)methyl]oxan-4-yl]methyl]-4,5,6,7,8,9-hexahydrocycloocta[b]thiophene-2-carboxamide]: the results for the EC50 at mCX3CR1, at rCX3CR1 and on hCX3CR1 [1] were 83.8 µM, 74.9 µM and 20.8 µM, respectively.

Take `O=C(NCC1(CN2CCCC2)CCOC1)c1cc2c(s1)CCCCCC2` (stereo not drawn) [Example 39, N-[[3-(pyrrolidin-1-ylmethyl)oxolan-3-yl]methyl]-4,5,6,7,8,9-hexahydrocycloocta[b]thiophene-2-carboxamide]: the values for the concentration for a half-maximal effect (EC50) at mCX3CR1, at rCX3CR1 and on hCX3CR1 [1] were 9.6 µM, 10.9 µM and 11.1 µM, respectively.

What is called EC50 is the concentration that produces a half-maximal response.
